# From patent US20140343000A1 (priority 2011, published 2014)
# System: recombinant NL4-3 virus (Renilla luciferase in nef, Gag P373S; NLRluc) in MT-2 cells
# Assay: whole plant or invertebrate
# Assay type: cell-based, HIV
# Details: Renilla, NL43, luciferase activity in cells infected for 4-5 days with NLRluc recombinants, serial dilutions of inhibitor; class symbols (key in Table 1); read-out: EC50
# Method in brief: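 Luciferase signal is the read-out: after 4-5 days of infection in the presence of serially diluted compound, MT-2 cells are lysed with a premix of lysis buffer, luciferase reagent and Stop & Glo substrate, and luminescence is read immediately.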
row,SMILES,EC50 [nM]
1,"C=C(C)[C@@H]1CC[C@]2(NCCN(CCC(=O)O)CCC(=O)O)CC[C@]3(C)[C@H](CC[C@@H]4[C@@]5(C)CC=C(c6ccc(C(=O)O)cc6)C(C)(C)[C@@H]5CC[C@]43C)[C@@H]12 [Example 141, 3,3′-(2-((1R,3aS,5aR,5bR,7aR,11aS,11bR,13aR,13bR)-9-(4-carboxyphenyl)-5a,5b,8,8,11a-pentamethyl-1-(prop-1-en-2-yl)-2,3,3a,4,5,5a,5b,6,7,7a,8,11,11a,11b,12,13,13a,13b-octadecahydro-1H-cyclopenta[a]chrysen-3a-ylamino)ethylazanediyl)dipropanoic acid]",< 100
2,"C=C(C)[C@@H]1CC[C@]2(NCCNCCC(=O)N(C)C)CC[C@]3(C)[C@H](CC[C@@H]4[C@@]5(C)CC=C(c6ccc(C(=O)O)cc6)C(C)(C)[C@@H]5CC[C@]43C)[C@@H]12 [Example 142, 4-((1R,3aS,5aR,5bR,7aR,11aS,11bR,13aR,13bR)-3a-(2-(3-(dimethylamino)-3-oxopropylamino)ethylamino)-5a,5b,8,8,11a-pentamethyl-1-(prop-1-en-2-yl)-2,3,3a,4,5,5a,5b,6,7,7a,8,11,11a,11b,12,13,13a,13b-octadecahydro-1H-cyclopenta[a]chrysen-9-yl)benzoic acid]",< 100
3,"C=C(C)[C@@H]1CC[C@]2(NCCCNC(=O)OC(C)(C)C)CC[C@]3(C)[C@H](CC[C@@H]4[C@@]5(C)CC=C(c6ccc(C(=O)O)cc6)C(C)(C)[C@@H]5CC[C@]43C)[C@@H]12 [Example 143, 4-((1R,3aS,5aR,5bR,7aR,11aS,11bR,13aR,13bR)-3a-(3-(tert-butoxycarbonylamino)propylamino)-5a,5b,8,8,11a-pentamethyl-1-(prop-1-en-2-yl)-2,3,3a,4,5,5a,5b,6,7,7a,8,11,11a,11b,12,13,13a,13b-octadecahydro-1H-cyclopenta[a]chrysen-9-yl)benzoic acid]",< 100
4,"C=C(C)[C@@H]1CC[C@]2(NCCCN3CCS(=O)(=O)CC3)CC[C@]3(C)[C@H](CC[C@@H]4[C@@]5(C)CC=C(c6ccc(C(=O)O)cc6)C(C)(C)[C@@H]5CC[C@]43C)[C@@H]12 [Example 144, 4-[(1R,3aS,5aR,5bR,7aR,11aS,11bR,13aR,13bR)-3a-[[3-(1,1-dioxido-4-thiomorpholinyl)propyl]amino]-2,3,3a,4,5,5a,5b,6,7,7a,8,11,11a,11b,12,13,13a,13b-octadecahydro-5a,5b,8,8,11a-pentamethyl-1-(1-methylethenyl)-1H-cyclopenta[a]chrysen-9-yl]-benzoic acid]",< 100
5,"C=C(C)[C@@H]1CC[C@]2(NCC(=O)N(C)C)CC[C@]3(C)[C@H](CC[C@@H]4[C@@]5(C)CC=C(c6ccc(C(=O)O)cc6)C(C)(C)[C@@H]5CC[C@]43C)[C@@H]12 [Example 145, 4-((1R,3aS,5aR,5bR,7aR,11aS,11bR,13aR,13bR)-3a-(2-(dimethylamino)-2-oxoethylamino)-5a,5b,8,8,11a-pentamethyl-1-(prop-1-en-2-yl)-2,3,3a,4,5,5a,5b,6,7,7a,8,11,11a,11b,12,13,13a,13b-octadecahydro-1H-cyclopenta[a]chrysen-9-yl)benzoic acid]",< 100
6,"C=C(C)[C@@H]1CC[C@]2(NCCN3CCCC3=O)CC[C@]3(C)[C@H](CC[C@@H]4[C@@]5(C)CC=C(c6ccc(C(=O)O)cc6)C(C)(C)[C@@H]5CC[C@]43C)[C@@H]12 [Example 146, 4-((1R,3aS,5aR,5bR,7aR,11aS,11bR,13aR,13bR)-5a,5b,8,8,11a-pentamethyl-3a-(2-(2-oxopyrrolidin-1-yl)ethylamino)-1-(prop-1-en-2-yl)-2,3,3a,4,5,5a,5b,6,7,7a,8,11,11a,11b,12,13,13a,13b-octadecahydro-1H-cyclopenta[a]chrysen-9-yl)benzoic acid]",< 100
7,"C=C(C)[C@@H]1CC[C@]2(NCC(=O)N3CCCC3)CC[C@]3(C)[C@H](CC[C@@H]4[C@@]5(C)CC=C(c6ccc(C(=O)O)cc6)C(C)(C)[C@@H]5CC[C@]43C)[C@@H]12 [Example 147, 4-((1R,3aS,5aR,5bR,7aR,11aS,11bR,13aR,13bR)-5a,5b,8,8,11a-pentamethyl-3a-(2-oxo-2-(pyrrolidin-1-yl)ethylamino)-1-(prop-1-en-2-yl)-2,3,3a,4,5,5a,5b,6,7,7a,8,11,11a,11b,12,13,13a,13b-octadecahydro-1H-cyclopenta[a]chrysen-9-yl)benzoic acid]",< 100
8,"C=C(C)[C@@H]1CC[C@]2(NCC(=O)NC)CC[C@]3(C)[C@H](CC[C@@H]4[C@@]5(C)CC=C(c6ccc(C(=O)O)cc6)C(C)(C)[C@@H]5CC[C@]43C)[C@@H]12 [Example 148, 4-((1R,3aS,5aR,5bR,7aR,11aS,11bR,13aR,13bR)-5a,5b,8,8,11a-pentamethyl-3a-(2-(methylamino)-2-oxoethylamino)-1-(prop-1-en-2-yl)-2,3,3a,4,5,5a,5b,6,7,7a,8,11,11a,11b,12,13,13a,13b-octadecahydro-1H-cyclopenta[a]chrysen-9-yl)benzoic acid]",< 100
9,"C=C(C)[C@@H]1CC[C@]2(NCC(=O)N(CC)CC)CC[C@]3(C)[C@H](CC[C@@H]4[C@@]5(C)CC=C(c6ccc(C(=O)O)cc6)C(C)(C)[C@@H]5CC[C@]43C)[C@@H]12 [Example 149, 4-((1R,3aS,5aR,5bR,7aR,11aS,11bR,13aR,13bR)-3a-(2-(diethylamino)-2-oxoethylamino)-5a,5b,8,8,11a-pentamethyl-1-(prop-1-en-2-yl)-2,3,3a,4,5,5a,5b,6,7,7a,8,11,11a,11b,12,13,13a,13b-octadecahydro-1H-cyclopenta[a]chrysen-9-yl)benzoic acid]",< 100
10,"C=C(C)[C@@H]1CC[C@]2(NCC(=O)NC(C)C)CC[C@]3(C)[C@H](CC[C@@H]4[C@@]5(C)CC=C(c6ccc(C(=O)O)cc6)C(C)(C)[C@@H]5CC[C@]43C)[C@@H]12 [Example 150, 4-((1R,3aS,5aR,5bR,7aR,11aS,11bR,13aR,13bR)-3a-(2-(isopropylamino)-2-oxoethylamino)-5a,5b,8,8,11a-pentamethyl-1-(prop-1-en-2-yl)-2,3,3a,4,5,5a,5b,6,7,7a,8,11,11a,11b,12,13,13a,13b-octadecahydro-1H-cyclopenta[a]chrysen-9-yl)benzoic acid]",< 100
11,"C=C(C)[C@@H]1CC[C@]2(NCCO)CC[C@]3(C)[C@H](CC[C@@H]4[C@@]5(C)CC=C(c6ccc(C(=O)O)cc6)C(C)(C)[C@@H]5CC[C@]43C)[C@@H]12 [Example 151, 4-((1R,3aS,5aR,5bR,7aR,11aS,11bR,13aR,13bR)-3a-(2-hydroxyethylamino)-5a,5b,8,8,11a-pentamethyl-1-(prop-1-en-2-yl)-2,3,3a,4,5,5a,5b,6,7,7a,8,11,11a,11b,12,13,13a,13b-octadecahydro-1H-cyclopenta[a]chrysen-9-yl)benzoic acid]",< 100
12,"C=C(C)[C@@H]1CC[C@]2(NCC3CC3)CC[C@]3(C)[C@H](CC[C@@H]4[C@@]5(C)CC=C(c6ccc(C(=O)O)cc6)C(C)(C)[C@@H]5CC[C@]43C)[C@@H]12 [Example 152, 4-((1R,3aS,5aR,5bR,7aR,11aS,11bR,13aR,13bR)-3a-(cyclopropylmethylamino)-5a,5b,8,8,11a-pentamethyl-1-(prop-1-en-2-yl)-2,3,3a,4,5,5a,5b,6,7,7a,8,11,11a,11b,12,13,13a,13b-octadecahydro-1H-cyclopenta[a]chrysen-9-yl)benzoic acid]",< 100
13,"C=C(C)[C@@H]1CC[C@]2(NCC3CCCN(C(=O)OC(C)(C)C)C3)CC[C@]3(C)[C@H](CC[C@@H]4[C@@]5(C)CC=C(c6ccc(C(=O)O)cc6)C(C)(C)[C@@H]5CC[C@]43C)[C@@H]12 (stereo partly drawn) [Example 153, 4-((1R,3aS,5aR,5bR,7aR,11aS,11bR,13aR,13bR)-3a-((1-(tert-butoxycarbonyl)piperidin-3-yl)methylamino)-5a,5b,8,8,11a-pentamethyl-1-(prop-1-en-2-yl)-2,3,3a,4,5,5a,5b,6,7,7a,8,11,11a,11b,12,13,13a,13b-octadecahydro-1H-cyclopenta[a]chrysen-9-yl)benzoic acid]",> 100
14,"C=C(C)[C@@H]1CC[C@]2(NCC3CCCNC3)CC[C@]3(C)[C@H](CC[C@@H]4[C@@]5(C)CC=C(c6ccc(C(=O)O)cc6)C(C)(C)[C@@H]5CC[C@]43C)[C@@H]12 (stereo partly drawn) [Example 154, 4-((1R,3aS,5aR,5bR,7aR,11aS,11bR,13aR,13bR)-5a,5b,8,8,11a-pentamethyl-3a-(piperidin-3-ylmethylamino)-1-(prop-1-en-2-yl)-2,3,3a,4,5,5a,5b,6,7,7a,8,11,11a,11b,12,13,13a,13b-octadecahydro-1H-cyclopenta[a]chrysen-9-yl)benzoic acid]",< 100
15,"C=C(C)[C@@H]1CC[C@]2(NCc3ccco3)CC[C@]3(C)[C@H](CC[C@@H]4[C@@]5(C)CC=C(c6ccc(C(=O)O)cc6)C(C)(C)[C@@H]5CC[C@]43C)[C@@H]12 [Example 155, 4-((1R,3aS,5aR,5bR,7aR,11aS,11bR,13aR,13bR)-3a-(furan-2-ylmethylamino)-5a,5b,8,8,11a-pentamethyl-1-(prop-1-en-2-yl)-2,3,3a,4,5,5a,5b,6,7,7a,8,11,11a,11b,12,13,13a,13b-octadecahydro-1H-cyclopenta[a]chrysen-9-yl)benzoic acid]",< 100

# Same assay, conditions: Renilla, NL43, luciferase activity in cells infected for 4-5 days with NLRluc recombinants, serial dilutions of inhibitor; numeric values; read-out: EC50
row,SMILES,EC50 [nM]
1,"C=C(C)[C@@H]1CC[C@]2(NCC(OC)OC)CC[C@]3(C)[C@H](CC[C@@H]4[C@@]5(C)CC=C(c6ccc(C(=O)O)cc6)C(C)(C)[C@@H]5CC[C@]43C)[C@@H]12 [Example 156, 4-((1R,3aS,5aR,5bR,7aR,11aS,11bR,13aR,13bR)-3a-(2,2-dimethoxyethylamino)-5a,5b,8,8,11a-pentamethyl-1-(prop-1-en-2-yl)-2,3,3a,4,5,5a,5b,6,7,7a,8,11,11a,11b,12,13,13a,13b-octadecahydro-1H-cyclopenta[a]chrysen-9-yl)benzoic acid]",120
